Assay results published in paper PMC2665027 (Biochemistry, 2009).
Values joined by “and” are separate entries in the source; they are usually repeats but may differ in a detail not shown here. Identical values can stand only once. Like-named read-outs stand apart in the source and are kept apart here.

Tests used:
rat arginase I [1] = settings: ref [26], cited from earlier work; for diminished catalytic activity based on kcat/KM relative to L-arginine / increased KM value relative to L-arginine: alternative substrate
rat arginase I [2] = settings: deletion of the carboxylate group of ABH; ref [28]; cited from earlier work
D183N human arginase I = target: T1, D183N human arginase I (Homo sapiens, UniProt P05089, D183N); test: Isothermal titration calorimetry, D183N human arginase I; assay type: binding
T1 sequence (P05089 1-322 D183N): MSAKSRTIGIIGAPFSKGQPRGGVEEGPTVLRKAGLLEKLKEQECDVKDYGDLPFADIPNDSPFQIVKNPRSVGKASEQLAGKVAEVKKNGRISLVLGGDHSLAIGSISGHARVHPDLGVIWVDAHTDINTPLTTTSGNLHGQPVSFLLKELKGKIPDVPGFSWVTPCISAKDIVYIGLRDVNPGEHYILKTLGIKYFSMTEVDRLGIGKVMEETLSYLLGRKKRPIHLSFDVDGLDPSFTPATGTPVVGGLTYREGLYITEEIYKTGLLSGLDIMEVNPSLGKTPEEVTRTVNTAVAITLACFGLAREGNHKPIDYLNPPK

[3] = target: wild-type human arginase I; settings: isothermal titration calorimetry; ref [30] and [48]; cited from earlier work
D183A human arginase I = target: T2, D183A human arginase I (Homo sapiens, UniProt P05089, D183A); test: Isothermal titration calorimetry, D183A human arginase I; assay type: binding
T2 sequence (P05089 1-322 D183A): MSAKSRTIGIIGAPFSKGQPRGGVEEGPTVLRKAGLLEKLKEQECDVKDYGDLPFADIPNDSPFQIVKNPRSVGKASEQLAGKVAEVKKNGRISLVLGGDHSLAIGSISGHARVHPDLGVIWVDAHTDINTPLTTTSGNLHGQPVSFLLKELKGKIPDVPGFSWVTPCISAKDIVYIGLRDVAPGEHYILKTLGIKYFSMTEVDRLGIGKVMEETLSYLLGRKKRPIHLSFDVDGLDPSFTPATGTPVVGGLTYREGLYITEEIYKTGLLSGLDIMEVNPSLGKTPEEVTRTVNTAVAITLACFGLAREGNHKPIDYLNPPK

T135S rat arginase I = target: T3, T135S rat arginase I (Rattus norvegicus, UniProt P07824, T135S); assay type: biochemical
T3 sequence (P07824 1-323 T135S): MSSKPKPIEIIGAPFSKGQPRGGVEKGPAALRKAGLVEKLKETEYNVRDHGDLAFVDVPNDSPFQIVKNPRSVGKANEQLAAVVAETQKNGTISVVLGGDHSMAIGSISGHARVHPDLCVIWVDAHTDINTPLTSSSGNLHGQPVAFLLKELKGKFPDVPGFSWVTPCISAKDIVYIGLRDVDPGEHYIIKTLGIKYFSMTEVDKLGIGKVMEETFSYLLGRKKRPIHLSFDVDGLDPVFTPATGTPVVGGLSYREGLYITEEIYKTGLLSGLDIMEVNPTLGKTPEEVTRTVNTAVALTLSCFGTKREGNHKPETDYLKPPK

T135A rat arginase I = target: T4, T135A rat arginase I (Rattus norvegicus, UniProt P07824, T135A); test: 14C-urea radioactive arginase assay, T135A rat arginase I; assay type: biochemical
T4 sequence (P07824 1-323 T135A): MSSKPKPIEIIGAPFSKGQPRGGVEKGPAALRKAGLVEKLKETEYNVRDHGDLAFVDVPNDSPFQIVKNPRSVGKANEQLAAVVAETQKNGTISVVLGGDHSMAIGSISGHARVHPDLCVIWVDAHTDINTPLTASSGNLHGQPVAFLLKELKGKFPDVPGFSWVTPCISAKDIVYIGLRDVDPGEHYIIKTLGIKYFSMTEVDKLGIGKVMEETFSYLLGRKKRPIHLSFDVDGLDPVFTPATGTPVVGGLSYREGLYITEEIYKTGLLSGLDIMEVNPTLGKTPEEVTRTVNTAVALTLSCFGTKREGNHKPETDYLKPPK

N130A rat arginase I = target: T5, N130A rat arginase I (Rattus norvegicus, UniProt P07824, N130A); test: 14C-urea radioactive arginase assay, N130A rat arginase I; assay type: biochemical
T5 sequence (P07824 1-323 N130A): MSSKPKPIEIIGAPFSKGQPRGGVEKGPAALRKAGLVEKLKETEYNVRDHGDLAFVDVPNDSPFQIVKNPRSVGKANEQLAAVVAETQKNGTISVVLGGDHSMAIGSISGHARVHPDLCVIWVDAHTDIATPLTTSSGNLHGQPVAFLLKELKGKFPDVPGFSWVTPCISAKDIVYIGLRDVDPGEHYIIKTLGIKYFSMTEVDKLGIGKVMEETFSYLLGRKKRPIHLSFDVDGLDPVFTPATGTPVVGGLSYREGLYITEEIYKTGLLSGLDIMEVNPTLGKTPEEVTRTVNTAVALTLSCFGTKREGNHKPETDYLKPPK

wild-type rat arginase I = target: T6, wild-type rat arginase I (Rattus norvegicus, UniProt P07824); settings: ref [14], cited from earlier work
T6 sequence (P07824 1-323): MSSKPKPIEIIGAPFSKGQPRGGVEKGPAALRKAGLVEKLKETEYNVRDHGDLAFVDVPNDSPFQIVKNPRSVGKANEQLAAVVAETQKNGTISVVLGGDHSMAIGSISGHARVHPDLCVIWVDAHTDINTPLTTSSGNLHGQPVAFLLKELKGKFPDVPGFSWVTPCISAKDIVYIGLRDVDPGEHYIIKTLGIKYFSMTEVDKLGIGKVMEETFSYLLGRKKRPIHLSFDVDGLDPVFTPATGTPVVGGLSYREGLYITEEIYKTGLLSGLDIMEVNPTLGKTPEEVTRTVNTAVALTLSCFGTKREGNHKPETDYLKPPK

[4] = substrate: N=C(N)NCCC[C@H](N)C(=O)O; test: 14C-urea radioactive arginase assay, D183A rat arginase I; assay type: biochemical; settings: other: substrate L-arginine, pH 9.0, room temperature
[5] = substrate: N=C(N)NCCC[C@H](N)C(=O)O; test: 14C-urea radioactive arginase assay, N130A rat arginase I; assay type: biochemical; settings: other: substrate L-arginine, pH 9.0, room temperature
[6] = substrate: N=C(N)NCCC[C@H](N)C(=O)O; test: 14C-urea radioactive arginase assay, N130Y rat arginase I; assay type: biochemical; settings: other: substrate L-arginine, pH 9.0, room temperature
[7] = substrate: N=C(N)NCCC[C@H](N)C(=O)O; assay type: biochemical, rat; settings: other: substrate L-arginine, pH 9.0, room temperature
[8] = substrate: N=C(N)NCCC[C@H](N)C(=O)O; test: 14C-urea radioactive arginase assay, N130F rat arginase I; assay type: biochemical; settings: other: substrate L-arginine, pH 9.0, room temperature
[9] = substrate: N=C(N)NCCC[C@H](N)C(=O)O; test: 14C-urea radioactive arginase assay, T135A rat arginase I; assay type: biochemical; settings: other: substrate L-arginine, pH 9.0, room temperature
[10] = progress curves in the presence of 30 µM BEC linear with time

NC(N)=NCCC[C@H](O)C(=O)O [L-argininic acid]
diminished catalytic activity based on kcat/KM relative to L-arginine (rat arginase I [1]): 3,200 fold
increased KM value relative to L-arginine (rat arginase I [1]): 9 fold

NCCCCCB(O)O [descarboxy-ABH]
loss of inhibitory activity relative to ABH (rat arginase I [2]): 1800 fold

NC(N)=NCCC[C@@H](N)C(=O)O [D-arginine]
substrate activity (rat arginase I [1]): not a substrate

NCCCCN=C(N)N [agmatine]
diminished catalytic activity based on kcat/KM relative to L-arginine (rat arginase I [1]): 54,000 fold
increased KM value relative to L-arginine (rat arginase I [1]): 11 fold

N[C@@H](CCCCB(O)O)C(=O)O [ABH, 2(S)-amino-6-boronohexanoic acid]
Kd (D183N human arginase I): 147 nM
inhibitor binding affinity weakened relative to wild-type (D183N human arginase I; D183N vs wild-type human arginase I, calorimetric Kd): 29 fold
Kd [3]: 5 nM
Kd (D183A human arginase I): 7000 nM
inhibitor binding affinity weakened relative to wild-type (D183A human arginase I; D183A vs wild-type human arginase I, calorimetric Kd): ~ 1400 fold and 1400 fold

N[C@@H](CSCCB(O)O)C(=O)O [BEC, S-(2-boronoethyl)-L-cysteine]
Ki (T135S rat arginase I): 125 nM
koff (T135S rat arginase I): 0.00155 s⁻¹
kon (T135S rat arginase I): 12400 M⁻¹ s⁻¹
inhibitor binding behaviour (T135S rat arginase I; non-linear progress curves in the presence of BEC): slow-binding behavior
Ki (T135A rat arginase I): 4500 nM
inhibitor binding behaviour (T135A rat arginase I; [10]): does not exhibit slow-binding behavior
Ki (N130A rat arginase I): 13000 nM
diminished enzyme-inhibitor affinity relative to wild-type (N130A rat arginase I; N130A vs wild-type rat arginase I): ~ 30 fold
inhibitor binding behaviour (N130A rat arginase I; [10]): no longer a slow-binding inhibitor
inhibitor binding behaviour (wild-type rat arginase I): slow-binding inhibitor
Ki (wild-type rat arginase I; slow-binding kinetics observed, Ki = koff/kon): 400 nM

B1: D183A rat arginase I (Rattus norvegicus; D183A) (protein)
chain: MSSKPKPIEIIGAPFSKGQPRGGVEKGPAALRKAGLVEKLKETEYNVRDHGDLAFVDVPNDSPFQIVKNPRSVGKANEQLAAVVAETQKNGTISVVLGGDHSMAIGSISGHARVHPDLCVIWVDAHTDINTPLTTSSGNLHGQPVAFLLKELKGKFPDVPGFSWVTPCISAKDIVYIGLRDVAPGEHYIIKTLGIKYFSMTEVDKLGIGKVMEETFSYLLGRKKRPIHLSFDVDGLDPVFTPATGTPVVGGLSYREGLYITEEIYKTGLLSGLDIMEVNPTLGKTPEEVTRTVNTAVALTLSCFGTKREGNHKPETDYLKPPK
Km [4]: 13.9 mM
kcat [4]: 14.7 s⁻¹
kcat/Km [4]: 1100 M⁻¹ s⁻¹

B2: N130A rat arginase I (Rattus norvegicus; N130A) (protein)
chain: MSSKPKPIEIIGAPFSKGQPRGGVEKGPAALRKAGLVEKLKETEYNVRDHGDLAFVDVPNDSPFQIVKNPRSVGKANEQLAAVVAETQKNGTISVVLGGDHSMAIGSISGHARVHPDLCVIWVDAHTDIATPLTTSSGNLHGQPVAFLLKELKGKFPDVPGFSWVTPCISAKDIVYIGLRDVDPGEHYIIKTLGIKYFSMTEVDKLGIGKVMEETFSYLLGRKKRPIHLSFDVDGLDPVFTPATGTPVVGGLSYREGLYITEEIYKTGLLSGLDIMEVNPTLGKTPEEVTRTVNTAVALTLSCFGTKREGNHKPETDYLKPPK
Km [5]: 50 mM
kcat [5]: 220 s⁻¹
kcat/Km [5]: 4400 M⁻¹ s⁻¹

B3: N130Y rat arginase I (Rattus norvegicus; N130Y) (protein)
chain: MSSKPKPIEIIGAPFSKGQPRGGVEKGPAALRKAGLVEKLKETEYNVRDHGDLAFVDVPNDSPFQIVKNPRSVGKANEQLAAVVAETQKNGTISVVLGGDHSMAIGSISGHARVHPDLCVIWVDAHTDIYTPLTTSSGNLHGQPVAFLLKELKGKFPDVPGFSWVTPCISAKDIVYIGLRDVDPGEHYIIKTLGIKYFSMTEVDKLGIGKVMEETFSYLLGRKKRPIHLSFDVDGLDPVFTPATGTPVVGGLSYREGLYITEEIYKTGLLSGLDIMEVNPTLGKTPEEVTRTVNTAVALTLSCFGTKREGNHKPETDYLKPPK
Km [6]: 21.4 mM
kcat [6]: 17 s⁻¹
kcat/Km [6]: 790 M⁻¹ s⁻¹

B4: T135S rat arginase I (Rattus norvegicus; T135S) (protein)
chain: MSSKPKPIEIIGAPFSKGQPRGGVEKGPAALRKAGLVEKLKETEYNVRDHGDLAFVDVPNDSPFQIVKNPRSVGKANEQLAAVVAETQKNGTISVVLGGDHSMAIGSISGHARVHPDLCVIWVDAHTDINTPLTSSSGNLHGQPVAFLLKELKGKFPDVPGFSWVTPCISAKDIVYIGLRDVDPGEHYIIKTLGIKYFSMTEVDKLGIGKVMEETFSYLLGRKKRPIHLSFDVDGLDPVFTPATGTPVVGGLSYREGLYITEEIYKTGLLSGLDIMEVNPTLGKTPEEVTRTVNTAVALTLSCFGTKREGNHKPETDYLKPPK
Km [7]: 2.5 mM
kcat [7]: 350 s⁻¹
kcat/Km [7]: 140000 M⁻¹ s⁻¹

B5: N130F rat arginase I (Rattus norvegicus; N130F) (protein)
chain: MSSKPKPIEIIGAPFSKGQPRGGVEKGPAALRKAGLVEKLKETEYNVRDHGDLAFVDVPNDSPFQIVKNPRSVGKANEQLAAVVAETQKNGTISVVLGGDHSMAIGSISGHARVHPDLCVIWVDAHTDIFTPLTTSSGNLHGQPVAFLLKELKGKFPDVPGFSWVTPCISAKDIVYIGLRDVDPGEHYIIKTLGIKYFSMTEVDKLGIGKVMEETFSYLLGRKKRPIHLSFDVDGLDPVFTPATGTPVVGGLSYREGLYITEEIYKTGLLSGLDIMEVNPTLGKTPEEVTRTVNTAVALTLSCFGTKREGNHKPETDYLKPPK
Km [8]: 19.3 mM
kcat [8]: 4.8 s⁻¹
kcat/Km [8]: 250 M⁻¹ s⁻¹

B6: T135A rat arginase I (Rattus norvegicus; T135A) (protein)
chain: MSSKPKPIEIIGAPFSKGQPRGGVEKGPAALRKAGLVEKLKETEYNVRDHGDLAFVDVPNDSPFQIVKNPRSVGKANEQLAAVVAETQKNGTISVVLGGDHSMAIGSISGHARVHPDLCVIWVDAHTDINTPLTASSGNLHGQPVAFLLKELKGKFPDVPGFSWVTPCISAKDIVYIGLRDVDPGEHYIIKTLGIKYFSMTEVDKLGIGKVMEETFSYLLGRKKRPIHLSFDVDGLDPVFTPATGTPVVGGLSYREGLYITEEIYKTGLLSGLDIMEVNPTLGKTPEEVTRTVNTAVALTLSCFGTKREGNHKPETDYLKPPK
Km [9]: 13 mM
kcat [9]: 260 s⁻¹
kcat/Km [9]: 20000 M⁻¹ s⁻¹
